Molecular target: T1, CRBN (Homo sapiens, UniProt Q96SW2)
T1 construct: expressed in transfected cells; host or cells: HEK293T
Assay: Competition Assay: MAPPIT-like, competition with trimethoprim-lenalidomide hybrid ligand for binding to CRBN in HEK293T cells
Assay type: cell-based
Details: HEK293T cells, 300 nM trimethoprim-lenalidomide hybrid ligand, luciferase 24 hours after compound treatment; read-out: Competition IC50
From the text: A bait protein (protein A) is expressed as a fusion protein in which it is genetically fused to an engineered intracellular receptor domain of the leptin receptor, which is itself fused to the extracellular domain of the erythropoietin (Epo) receptor. Binding of Epo ligand to the EpoR component results in activation of receptor-associated intracellular JAK2. However, activated JAK2 cannot activate the leptin receptor to trigger STAT3 binding and its phosphorylation because its tyrosine residues, normally phosphorylated by activated JAK2, have been mutated. Reconstitution of a JAK2 phosphorylatable STAT3 docking site is instead created through interaction of a protein B with protein A, whereby protein B is fused to a cytoplasmic domain of the gp130 receptor (which now harbors appropriate tyrosine resides recognized by the activated JAK2 kinase). Thus, physical interaction of protein A with protein B reconstitutes and Epo triggers JAK2-STAT3 signaling pathway activation. Activation of STAT3 can be monitored by introduction of a STAT3-responsive reporter gene, including a luciferase-encoding gene or a gene encoding a fluorescent marker such as GFP or some other type of fluorescent protein (EGF etc.). In this manner, the MAPPIT assay provides a versatile assay to assess such recombinant protein-protein interactions, or compound- or hybrid ligand-induced protein-protein interactions, in intact cells.
Formation of the complex results in activation of a STAT-responsive luciferase reporter gene. That signal is set to 100% luciferase activity. In a separate sample set up, cells are prepared in the same manner but, in addition, co-incubated with a test compound whose interaction with CRBN is investigated. […] Increasing concentrations of test compound are assessed to determine CRBN binding efficiency as determined in this type of ligand competition experiment in living cells. Specificity of signal inhibition is assessed by a parallel experimental set up in which test compound effect is assessed for inhibition of signal generated by a control gp130 fusion protein (CTRL) that directly binds to the DHFR-fusion protein in the absence of hybrid ligand (i.e. a direct interaction of the proteins).
In more detail, HEK293T cells are cultured in Dulbecco's modified Eagle's medium supplemented with 10% fetal calf serum, incubated at 37° C., 8% CO2. […] Data points represent the average luciferase activity of triplicate samples derived from cells treated with leptin+test compound for the REM2 control (CTRL) or cells treated with leptin+hybrid ligand+test compound (CRBN) relative to leptin (CTRL) or leptin+hybrid ligand (CRBN) only treated samples (the signals obtained in absence of added test compound for both cases is set at 100% of luciferase activity on y-axis). Error bars represent standard deviations. Curves are fit using 4-parameter nonlinear regression in […] PRISM software

**Q.** With `C#CCOCCOCCOCCOCC(=O)Nc1ccc(-c2cccc3c2C(=O)N(C2CCC(=O)NC2=O)C3)cc1` (stereo not shown) [Compound 5.05] as the compound, how does the IC50 read?
**A.** 0.194 µM

**Q.** Which IC50 does the source give for `Cc1sc2c(c1C)C(c1ccc(Cl)cc1)=N[C@@H](CC(=O)NCCOCCOCCNC(=O)COc1cccc3c1CN(C1CCC(=O)NC1=O)C3=O)c1nnc(C)n1-2` (stereo partly shown) [Compound 5.59] here?
**A.** 0.068 µM

**Q.** How did the IC50 turn out when `Cc1sc2c(c1C)C(c1ccc(Cl)cc1)=N[C@@H](CC(=O)NCCOCCOCCOCCNC(=O)COc1cccc3c1CN(C1CCC(=O)NC1=O)C3=O)c1nnc(C)n1-2` (stereo partly shown) [Compound 5.58] was run?
**A.** 0.0998 µM

**Q.** Which IC50 does the source give for `Cc1sc2c(c1C)C(c1ccc(Cl)cc1)=N[C@@H](CC(=O)NCCNC(=O)COc1cccc3c1CN(C1CCC(=O)NC1=O)C3=O)c1nnc(C)n1-2` (stereo partly shown) [Compound 5.60] here?
**A.** 0.116 µM

**Q.** Which IC50 does the source give for `CC(C)(C)OC(=O)NCCOCCOCCOCCn1cc(CNc2nc(Nc3ccc4c(c3)CN(C3CCC(=O)NC3=O)C4=O)c3ccsc3n2)nn1` (stereo not shown) [Compound 5.02] here?
**A.** 0.376 µM

Same assay, conditions: protocol and reagents of Example 1; read-out: IC50 Competition

**Q.** How did the IC50 turn out when `O=C(CNc1ccc2c(c1)C(=O)N(C1CCC(=O)NC1=O)C2)NCc1ccccc1` (stereo not shown) [Compound C84966, N-benzyl-2-[[2-(2,6-dioxo-3-piperidyl)-3-oxo-isoindolin-5-yl]amino]acetamide] was run?
**A.** 0.599 µM

**Q.** With `O=C1CCc2cc(C(=O)N3CCc4cccnc43)cnc2N1` [Compound C36128, 6-(2,3-dihydropyrrolo[2,3-b]pyridine-1-carbonyl)-3,4-dihydro-1H-1,8-naphthyridin-2-obe] as the compound, how does the IC50 read?
**A.** 20.3 µM

**Q.** How did the IC50 turn out when `Nc1cccc2c1CCN(C1CCC(=O)NC1=O)C2=O` (stereo not shown) [Compound C47933, 3-(5-amino-1-oxo-3,4-dihydroisoquinolin-2-yl)piperidine-2,6-dione] was run?
**A.** 1.09 µM

**Q.** With `CC1CC(NC(=O)CNc2ccc3c(c2)C(=O)N(C2CCC(=O)NC2=O)C3)CCO1` (stereo not shown) [Compound C12695, 2-[[2-(2,6-dioxo-3-piperidyl)-3-oxo-isoindolin-5-yl]amino]-N-(2-methyltetrahydropyran-4-yl)acetamide] as the compound, how does the IC50 read?
**A.** 58 µM

**Q.** Which IC50 does the source give for `N#Cc1cccc2c1C(=O)N(C1CCC(=O)NC1=O)C2` (stereo not shown) [Compound C48009, 2-(2,6-dioxo-3-piperidyl)-3-oxo-isoindoline-4-carbonitrile] here?
**A.** 2.18 µM

**Q.** For `NC(=O)Nc1cccc2c1CN(C1CCC(=O)NC1=O)C2=O` (stereo not shown) [Compound C29490, [2-(2,6-dioxo-3-piperidyl)-1-oxo-isoindolin-4-yl]urea], which IC50 is on record?
**A.** 8.86 µM

**Q.** How did the IC50 turn out when `O=C(O)CNc1cccc2c1CN(C1CCC(=O)NC1=O)C2=O` (stereo not shown) [2-[[2-(2,6-dioxo-3-piperidyl)-1-oxo-isoindolin-4-yl]amino]acetic acid] was run?
**A.** 13.8 µM

**Q.** Which IC50 does the source give for `O=C1CCC(N2Cc3cccc([N+](=O)[O-])c3C2=O)C(=O)N1` (stereo not shown) [Compound C99884, 3-(7-nitro-1-oxo-isoindolin-2-yl)piperidine-2,6-dione] here?
**A.** 1.37 µM

**Q.** Which IC50 does the source give for `O=C1CCC(N2Cc3ccc(C(F)(F)F)cc3C2=O)C(=O)N1` (stereo not shown) [Compound C45748, 3-[1-oxo-6-(trifluoromethyl)isoindolin-2-yl]piperidine-2,6-dione] here?
**A.** 0.953 µM

**Q.** Which IC50 does the source give for `O=C1N=CC(N2C(=O)c3ccccc3C2=O)C(=O)N1` (stereo not shown) [Compound C49278, 2-(2,6-dioxo-5H-pyrimidin-5-yl)isoindoline-1,3-dione] here?
**A.** 45.4 µM

**Q.** For `O=C1CCC(N2Cc3ccc(NC(=O)c4ccc5cnccc5n4)cc3C2=O)C(=O)N1` (stereo not shown) [Compound C80393, N-[2-(2,6-dioxo-3-piperidyl)-3-oxo-isoindolin-5-yl]-1,6-naphthyridine-2-carboxamide], which IC50 is on record?
**A.** 0.007 µM

**Q.** Which IC50 does the source give for `O=C1CCC(Nc2ncccn2)C(=O)N1` (stereo not shown) [Compound C55468, 3-(pyrimidin-2-ylamino)piperidine-2,6-dione] here?
**A.** 8.68 µM

**Q.** How did the IC50 turn out when `O=C1c2ccccc2CC1n1ccc(=O)[nH]c1=O` (stereo not shown) [Compound C16899, 1-(1-oxoindan-2-yl)pyrimidine-2,4-dione] was run?
**A.** 10.4 µM

**Q.** With `CN(Cc1cnn(C)c1)C(=O)CNc1ccc2c(c1)C(=O)N(C1CCC(=O)NC1=O)C2` (stereo not shown) [Compound C95333, 2-[[2-(2,6-dioxo-3-piperidyl)-3-oxo-isoindolin-5-yl]amino]-N-methyl-N-[(1-methylpyrazol-4-yl)methyl]acetamide] as the compound, how does the IC50 read?
**A.** 0.591 µM

**Q.** `CC1CCN(C(=O)CNc2ccc3c(c2)C(=O)N(C2CCC(=O)NC2=O)C3)CC1` (stereo not shown) [Compound C12582, 3-[6-[[2-(4-methyl-1-piperidyl)-2-oxo-ethyl]amino]-1-oxo-isoindolin-2-yl]piperidine-2,6-dione] was tested. Which IC50 did it give?
**A.** 37400 µM

**Q.** For `CC1CCCN(C(=O)CNc2ccc3c(c2)C(=O)N(C2CCC(=O)NC2=O)C3)C1` (stereo not shown) [Compound C12583, 3-[6-[[2-(3-methyl-1-piperidyl)-2-oxo-ethyl]amino]-1-oxo-isoindolin-2-yl]piperidine-2,6-dione], which IC50 is on record?
**A.** 0.0492 µM

**Q.** For `O=C1CCC(CN2C(=O)c3ccccc3C2=O)C(=O)N1` (stereo not shown) [Compound C23258, 2-[(2,6-dioxo-3-piperidyl)methyl]isoindoline-1,3-dione], which IC50 is on record?
**A.** 14500 µM

**Q.** For `Nc1nc(Nc2ccc3c(c2)CN(C2CCC(=O)NC2=O)C3=O)nc2sccc12` (stereo not shown) [Compound C80379, 3-[5-[(4-aminothieno[2,3-d]pyrimidin-2-yl)amino]-1-oxo-isoindolin-2-yl]piperidine-2,6-dione], which IC50 is on record?
**A.** 0.971 µM

**Q.** `O=C1c2c(F)c(F)c(F)c(F)c2C(=O)N1c1ccc(F)cc1F` [Compound C34491, 2-(2,4-difluorophenyl)-4,5,6,7-tetrafluoro-isoindoline-1,3-dione] was tested. Which IC50 did it give?
**A.** 16.1 µM

**Q.** For `O=C1CCC(N2C(=O)c3ccccc3C2OCc2ccccc2)C(=O)N1` (stereo not shown) [3-(1-benzyloxy-3-oxo-isoindolin-2-yl)piperidine-2,6-dione], which IC50 is on record?
**A.** 58.3 µM

**Q.** Which IC50 does the source give for `CC(=O)Nc1ccc2c(c1)C(=O)N(C1CCC(=O)NC1=O)C2` (stereo not shown) [Compound C29408, N-[2-(2,6-dioxo-3-piperidyl)-3-oxo-isoindolin-5-yl]acetamide] here?
**A.** 4.92 µM

**Q.** How did the IC50 turn out when `C=CCC1c2ccccc2C(=O)N1C1CCC(=O)NC1=O` (stereo not shown) [Compound C96413, 3-(1-allyl-3-oxo-isoindolin-2-yl)piperidine-2,6-dione] was run?
**A.** 10.4 µM

**Q.** With `O=C1CCC(N2C(=O)c3ccccc3C2C2=c3ccccc3=NC2)C(=O)N1` (stereo not shown) [Compound C49713, 3-[1-(2H-indol-3-yl)-3-oxo-isoindolin-2-yl]piperidine-2,6-dione] as the compound, how does the IC50 read?
**A.** 6.74 µM

**Q.** For `Nc1cccc2c(=O)n(C3CCC(=O)NC3=O)nnc12` (stereo not shown) [Compound C35833, 3-(8-amino-4-oxo-1,2,3-benzotriazin-3-yl)piperidine-2,6-dione], which IC50 is on record?
**A.** 0.684 µM

**Q.** With `O=C1CCC(N2Cc3ccc(NCC(=O)Nc4ccccc4)cc3C2=O)C(=O)N1` (stereo not shown) [Compound C84965, 2-[[2-(2,6-dioxo-3-piperidyl)-3-oxo-isoindolin-5-yl]amino]-N-phenyl-acetamide] as the compound, how does the IC50 read?
**A.** 0.2 µM

**Q.** How did the IC50 turn out when `O=C1N=c2ccc(NC(=O)NCc3ccccc3)cc2=N1` [1-benzyl-3-(2-oxobenzimidazol-5-yl)urea] was run?
**A.** 23.8 µM

**Q.** How did the IC50 turn out when `Cn1ccnc(Nc2ccc3c(c2)C(=O)N(C2CCC(=O)NC2=O)C3)c1=O` (stereo not shown) [Compound C80387, 3-[6-[(4-methyl-3-oxo-pyrazin-2-yl)amino]-1-oxo-isoindolin-2-yl]piperidine-2,6-dione] was run?
**A.** 0.0542 µM

**Q.** With `O=C1CCC(N2Cc3ccc(NCC(=O)NC4CC4)cc3C2=O)C(=O)N1` (stereo not shown) [Compound C84963, N-cyclopropyl-2-[[2-(2,6-dioxo-3-piperidyl)-3-oxo-isoindolin-5-yl]amino]acetamide] as the compound, how does the IC50 read?
**A.** 1.21 µM

**Q.** How did the IC50 turn out when `O=C1CCC(N2Cc3ccc(NC(=O)C4=C5C=CN=C5N=CC4)cc3C2=O)C(=O)N1` (stereo not shown) [Compound C80395, N-[2-(2,6-dioxo-3-piperidyl)-3-oxo-isoindolin-5-yl]-5H-pyrrolo[2,3-6]pyridine-4-carboxamide] was run?
**A.** 0.88 µM
